Patent publication US20240409963A1, “Use of Inhibitors to Increase Efficiency of Crispr/CAS Insertions” (AstraZeneca AB, priority 2021, published 2024)

Tests used:
[1] = system: HEK293T cells; assay: CRISPR/Cas9 double-strand break repair pathway and knock-in analysis (RIMA, amplicon sequencing), Examples 1-3; assay type: cell-based
Method: (§1) The effect of inhibitors of the MMEJ and NHEJ pathways on CRISPR-Cas-induced DNA double stranded break repair pathways was examined using the process shown schematically in FIG. 2A. Briefly, HEK293T cells were seeded into a 96-well plate 20 hours before transfection with plasmids encoding SpCas9 and a guide RNA (sgRNA) targeting CD34 together with a single-stranded oligonucleotide donor (ssDNA). […] The Pol Q inhibitors used are PolQ_2, PolQ_3, PolQ_4, PolQ_5, PolQ_6 or PolQ_7. Sixty hours post-transfection, genomic DNA was harvested and sequenced using deep-targeted amplicon sequencing. Genetic variants of the sequencing data were determined using a bioinformatic workflow, and the percentages of DNA double-stranded break repair by the MMEJ, NHEJ, and HDR pathways were determined using Rational InDel Meta-Analysis (RIMA). See, e.g., Taheri-Ghafarokhi et al, Nuc. Acids Res., 2018, 46 (16): 8417-8434. The RIMA results are plotted as shown in FIG. 2B, where deletions associated with microhomologies are visualized according to the bars shown in the figure.
The effect of NHEJ and MMEJ inhibitors on the CRISPR/Cas-mediated knock-in efficiency was determined in both mutated and mapped reads.
The effect of MMEJ pathway inhibition on mutated and mapped reads was assessed.

[2] = system: HEK293T cells; assay: Cell confluency and transfection efficiency in CRISPR/Cas-transfected cells, Example 4; assay type: cell-based; conditions: AZD7648 at a final concentration of 1 mM, FIG. 10
Method: as §1
HEK293T cells were cultured, transfected, and treated with NHEJ and MMEJ inhibitors as described in Example 1. Cell confluency and transfection efficiency was assessed in transfected cells treated with NHEJ and MMEJ inhibitors.

[3] = system: induced Pluripotent Stem Cells (iPSC); assay: Double-strand break repair pathways in Cas9-inducible iPSCs, Example 5; assay type: cell-based; conditions: single inhibitor: AZD7648 1 μM or PolQ inhibitor 3 μM, vs DMSO, FIG. 12
Method: (§2) The effect of NHEJ and/or MMEJ pathway inhibition on CRISPR-Cas-induced DNA double stranded break repair pathways in iPSCs was examined. Briefly, iPSCs comprising an inducible Cas9 gene were seeded into a 96-well plate 20 hours before transfection with a plasmid encoding a guide RNA (sgRNA) targeting one of three separate target sites together with a single-stranded oligonucleotide donor (ssDNA), followed by induction of Cas9 expression. […] Sixty hours post-transfection, the percentage of double-stranded break repair by the HDR, NHEJ, and MMEJ pathways was determined as discussed in Example 1.

[4] = system: Cas9-inducible iPSCs; assay: SSTR-mediated gene knock-in in Cas9-inducible iPSCs, Example 6; assay type: cell-based; conditions: single inhibitor, mapped reads, FIG. 13
Method: as §2
The effect of NHEJ and MMEJ pathway inhibition on gene knock-in efficiency mediated by the SSTR pathway in iPSCs was investigated. Briefly, Cas9-inducible iPSCs were cultured and transfected with sgRNA and ssDNA polynucleotides as described in Example 5.

[5] = system: HEK293T cells; assay: PolQ2 and PolQ6 on precise gene editing outcome at various target-sites, Example 9; assay type: cell-based; conditions: DNAPK inhibitor 1 μM, PolQ inhibitor 0 μM; for MMEJ indels Mean / NHEJ indels Mean / Total editing Mean: HEK293T, ssDNA donor; for Precise KI fold increase: vs DMSO
Method: (§3) HEK293T cells were seeded into 96-well plates and allowed to attach for 20 hours.

[6] = system: HEK293T cells; assay: PolQ inhibitor ART558 titration on precise gene editing outcomes, Example 10; assay type: cell-based; conditions: DNAPK inhibitor 1 μM, PolQ inhibitor 0 μM
Method: as §3

[7] = system: HEK293T cells; assay: Off-target editing at HEK3 and HEK4 on- and off-target sites with DNAPK and PolQ inhibitors, Example 12; assay type: cell-based; conditions: DNAPK inhibitor 1 μM, PolQ inhibitor 0 μM
Method: as §3

[8] = system: HEK293T cells; assay: Different DNAPK inhibitors on precise gene editing outcomes, Example 8; conditions: for HDR to indel ratio / Precise KI fold increase: gINS + ssDNA; for Precise KI fold increase: vs DMSO; for MMEJ indels Mean / NHEJ indels Mean / Total editing Mean: sgRNA CD34 (gINS) + ssDNA, 70 hours post-transfection;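 for all read-outs here: cells transfected with plasmids for SpCas9-EGFP, editing outcomes quantified from genomic DNA by deep targeted amplicon sequencing with bioinformatic analysis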
Method: Cells allowed to attach for 12 hours before transfection. Cells were transfected with DNA plasmids encoding for SpCas9-EGFP and a sgRNAs targeting CD34 (gINS) in the presence of single-stranded oligonucleotide donor (ssDNA). 70 hours post-transfection cell confluence and EGFP-based transfection efficiencies were determined with the Incucyte S3. Genomic DNA was extracted and editing outcome was analysed through deep-targeted amplicon sequencing using bioinformatic analysis.

[9] = SpCas9 + sgRNA CD34 + ssDNA, AZD7648 1 μM alone or in combination with Pol Q inhibitors, vs DMSO controls, FIG. 4
[10] = HEK293T, sgRNA CD34 (gMEJ) + ssDNA

Cc1cc2ncnn2cc1Nc1ncc2c(n1)n(C1CCOCC1)c(=O)n2C [AZD7648] was tested, and the CRISPR/Cas-mediated editing efficiency ([1]; AZD7648 1 μM alone and in combination with Pol Q inhibitors, FIG. 5) was “did not affect”, the “double-strand break repair by the HDR pathway” value [1, 9] was “marked in increase” and the “repair by the MMEJ and NHEJ pathways” value [1, 9] was “decreased”. For the same compound, the cell confluency [2] was “no significant effect”, the “double-strand break repair by the HDR pathway” value [3] was “marked in increase” and the “repair by the MMEJ and NHEJ pathways” value [3] was “decreased”. For the same compound, the “SSTR-mediated gene knock-in at all three target sites” value [4] was “increased”, the “MMEJ indels Mean” value ([5]; target-site gDel) was 8.9 and the “NHEJ indels Mean” value ([5]; target-site gDel) was 1.3. The “Total editing Mean” value ([5]; target-site gDel) was 77.3, the “MMEJ indels Mean” value ([5]; target-site gMej) was 27.9 and the “NHEJ indels Mean” value ([5]; target-site gMej) was 2.9. For the same compound, the “Total editing Mean” value ([5]; target-site gMej) was 83.1, the “MMEJ indels Mean” value ([5]; target-site glns) was 13.3 and the “NHEJ indels Mean” value ([5]; target-site glns) was 1.3. For the same compound, the “Total editing Mean” value ([5]; target-site glns) was 83.0, the “KI to indel ratio” value ([5]; target-site gDel) was 4.0 and the “Precise KI fold increase” value ([5]; target-site gDel) was 2.5 fold. The “KI to indel ratio” value ([5]; target-site gMej) was 1.0, the “Precise KI fold increase” value ([5]; target-site gMej) was 2.2 fold and the “KI to indel ratio” value ([5]; target-site glns) was 3.3. The “Precise KI fold increase” value ([5]; target-site glns) was 3.3 fold, the “MMEJ indels Mean” value [6, 10] was 32.6 and the “NHEJ indels Mean” value [6, 10] was 1.3. The “Total editing Mean” value [6, 10] was 74.4, the “KI to indel ratio” value ([6]; gMEJ + ssDNA) was 0.7 and the “OT1 off-target editing Mean” value ([7]; HEK3 nodonor) was 41.9. For the same compound, the “OT2 off-target editing Mean” value ([7]; HEK3 nodonor) was 32.5, the “OT3 off-target editing Mean” value ([7]; HEK3 nodonor) was 16.3 and the “OT4 off-target editing Mean” value ([7]; HEK3 nodonor) was 0.3. The “on-target editing Mean” value ([7]; HEK3 nodonor) was 73.8, the “OT1 off-target editing Mean” value ([7]; HEK3 ssDNA) was 17.7 and the “OT2 off-target editing Mean” value ([7]; HEK3 ssDNA) was 12.7. The “OT3 off-target editing Mean” value ([7]; HEK3 ssDNA) was 7.6, the “OT4 off-target editing Mean” value ([7]; HEK3 ssDNA) was 0.1 and the “on-target editing Mean” value ([7]; HEK3 ssDNA) was 61.5. For the same compound, the “OT1 off-target editing Mean” value ([7]; HEK4 nodonor) was 12.7, the “OT2 off-target editing Mean” value ([7]; HEK4 nodonor) was 7.3 and the “OT3 off-target editing Mean” value ([7]; HEK4 nodonor) was 36.3. The “on-target editing Mean” value ([7]; HEK4 nodonor) was 9.8, the “OT1 off-target editing Mean” value ([7]; HEK4 ssDNA) was 5.4 and the “OT2 off-target editing Mean” value ([7]; HEK4 ssDNA) was 3.3. For the same compound, the “OT3 off-target editing Mean” value ([7]; HEK4 ssDNA) was 18.2, the “on-target editing Mean” value ([7]; HEK4 ssDNA) was 15.6 and the “HDR to indel ratio” value ([8]; DNAPK inhibitor 0.3125 μM) was 0.3. For the same compound, the “Precise KI fold increase” value ([8]; DNAPK inhibitor 0.3125 μM) was 1.4 fold, the “HDR to indel ratio” value ([8]; DNAPK inhibitor 0.625 μM) was 0.5 and the “Precise KI fold increase” value ([8]; DNAPK inhibitor 0.625 μM) was 2.0 fold. The “HDR to indel ratio” value ([8]; DNAPK inhibitor 1.25 μM) was 0.6, the “Precise KI fold increase” value ([8]; DNAPK inhibitor 1.25 μM) was 2.0 fold and the “HDR to indel ratio” value ([8]; DNAPK inhibitor 5 μM) was 1.1. The “Precise KI fold increase” value ([8]; DNAPK inhibitor 5 μM) was 2.9 fold, the “HDR to indel ratio” value ([8]; DNAPK inhibitor 10 μM) was 1.1 and the “Precise KI fold increase” value ([8]; DNAPK inhibitor 10 μM) was 2.8 fold. For the same compound, the “MMEJ indels Mean” value ([8]; DNAPK inhibitor 0.3125 μM) was 15.2, the “NHEJ indels Mean” value ([8]; DNAPK inhibitor 0.3125 μM) was 28.6 and the “Total editing Mean” value ([8]; DNAPK inhibitor 0.3125 μM) was 69.5. The “MMEJ indels Mean” value ([8]; DNAPK inhibitor 0.625 μM) was 17.4, the “NHEJ indels Mean” value ([8]; DNAPK inhibitor 0.625 μM) was 18.3 and the “Total editing Mean” value ([8]; DNAPK inhibitor 0.625 μM) was 66.0. For the same compound, the “MMEJ indels Mean” value ([8]; DNAPK inhibitor 1.25 μM) was 16.5, the “NHEJ indels Mean” value ([8]; DNAPK inhibitor 1.25 μM) was 8.7 and the “Total editing Mean” value ([8]; DNAPK inhibitor 1.25 μM) was 53.3. The “MMEJ indels Mean” value ([8]; DNAPK inhibitor 5 μM) was 18.5, the “NHEJ indels Mean” value ([8]; DNAPK inhibitor 5 μM) was 2.5 and the “Total editing Mean” value ([8]; DNAPK inhibitor 5 μM) was 57.5. The “MMEJ indels Mean” value ([8]; DNAPK inhibitor 10 μM) was 16.9, the “NHEJ indels Mean” value ([8]; DNAPK inhibitor 10 μM) was 2.2 and the “Total editing Mean” value ([8]; DNAPK inhibitor 10 μM) was 53.7.
